Data: PubChem BioAssay AID248 (DTP/NCI, 2004)
Where “and” joins values, the source holds several entries; their conditions need not be identical. Equal entries are not always repeated. Inconclusive results and toxic doses are left out. Rule as the data show it: active = T/C of 150% or more; inactive = T/C below 125%.

Tested on: L1210 leukemia ip in BDF1 mice, survival T/C
Assay: NCI In Vivo Anticancer Drug Screen. Data for tumor model L1210 Leukemia (intraperitoneal) in B6D2F1 (BDF1) mice
Conditions: endpoint: mean survival time, higher = longer survival
Procedure, shortened: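 Tumor was transplanted into mice, which were then dosed with test compound or vehicle alone. Survival was recorded for each group, and the treated figure was expressed relative to the control figure.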

[1] = dose: 12.5 mg/kg/injection, schedule: Q04DX003 (ip), vehicle: saline
[2] = dose: 25.0 mg/kg/injection, schedule: Q04DX003 (ip), vehicle: saline
[3] = dose: 100.0 mg/kg/injection, schedule: Q01DX009 (ip), vehicle: saline
[4] = dose: 100.0 mg/kg/injection, schedule: Q04DX003 (ip), vehicle: saline
[5] = dose: 200.0 mg/kg/injection, schedule: Q01DX009 (ip), vehicle: saline
[6] = dose: 200.0 mg/kg/injection, schedule: Q04DX003 (ip), vehicle: saline
[7] = dose: 400.0 mg/kg/injection, schedule: Q01DX009 (ip), vehicle: saline
[8] = dose: 400.0 mg/kg/injection, schedule: Q04DX003 (ip), vehicle: saline
[9] = dose: 100.0 mg/kg/injection, schedule: Q01DX009 (ip), vehicle: Klucel (hydroxypropylcellulose) (HPC)
[10] = dose: 200.0 mg/kg/injection, schedule: Q01DX009 (ip), vehicle: Klucel (hydroxypropylcellulose) (HPC)
[11] = dose: 400.0 mg/kg/injection, schedule: Q01DX009 (ip), vehicle: Klucel (hydroxypropylcellulose) (HPC)
[12] = dose: 100.0 mg/kg/injection, schedule: Q01DX009 (ip), vehicle: saline with Tween-80
[13] = dose: 100.0 mg/kg/injection, schedule: Q04DX003 (ip), vehicle: saline with Tween-80
[14] = dose: 200.0 mg/kg/injection, schedule: Q01DX009 (ip), vehicle: saline with Tween-80
[15] = dose: 200.0 mg/kg/injection, schedule: Q04DX003 (ip), vehicle: saline with Tween-80
[16] = dose: 400.0 mg/kg/injection, schedule: Q01DX009 (ip), vehicle: saline with Tween-80
[17] = dose: 400.0 mg/kg/injection, schedule: Q04DX003 (ip), vehicle: saline with Tween-80
[18] = dose: 100.0 mg/kg/injection, schedule: Q04DX003 (ip), vehicle: Klucel (hydroxypropylcellulose) (HPC)
[19] = dose: 200.0 mg/kg/injection, schedule: Q04DX003 (ip), vehicle: Klucel (hydroxypropylcellulose) (HPC)
[20] = dose: 400.0 mg/kg/injection, schedule: Q04DX003 (ip), vehicle: Klucel (hydroxypropylcellulose) (HPC)
[21] = dose: 50.0 mg/kg/injection, schedule: Q01DX009 (ip), vehicle: Klucel (hydroxypropylcellulose) (HPC)

Measured: T/C

NNC(=O)C1CC1
inactive: [1] 101 % of control | [2] 97 % of control | dose: 50.0 mg/kg/injection, schedule: Q04DX003 (ip), vehicle: saline 96 % of control and 103 % of control

Cc1ccc(C(=O)O)cn1
inactive: [3] 97 % of control | [4] 97 % of control | [5] 98 % of control | [6] 113 % of control | [7] 97 % of control | [8] 105 % of control

COC(=O)c1ccccc1C(=O)Nc1cc(C(F)(F)F)ccc1Cl
inactive: [9] 100 % of control | [10] 103 % of control | [11] 100 % of control

O=C1C=CC(CCCCCn2ccc(=O)[nH]c2=O)C(=O)N1 (configuration not stated)
inactive: [4] 105 % of control | [6] 96 % of control | [8] 97 % of control

CC(=O)C(Sc1ccccc1[N+](=O)[O-])C(C)=O.[Co]
inactive: dose: 50.0 mg/kg/injection, schedule: Q01DX001 (ip), vehicle: other 92 % of control | dose: 100.0 mg/kg/injection, schedule: Q01DX001 (ip), vehicle: other 92 % of control | dose: 200.0 mg/kg/injection, schedule: Q01DX001 (ip), vehicle: other 92 % of control | dose: 400.0 mg/kg/injection, schedule: Q01DX001 (ip), vehicle: other 100 % of control

CCOC(=O)C1C(=O)C(CN(CCCl)CCCl)C(=O)C(C(=O)OCC)C1c1cc(OC)c(OC)c(OC)c1 (configuration not stated)
inactive: dose: 100.0 mg/kg/injection, schedule: Q04DX002 (ip), vehicle: Klucel (hydroxypropylcellulose) (HPC) 114 % of control | dose: 200.0 mg/kg/injection, schedule: Q04DX002 (ip), vehicle: Klucel (hydroxypropylcellulose) (HPC) 102 % of control | dose: 400.0 mg/kg/injection, schedule: Q04DX002 (ip), vehicle: Klucel (hydroxypropylcellulose) (HPC) 111 % of control

O=C(Nc1ccc([N+](=O)[O-])cc1Cl)N(CCO)C1CCCCC1
inactive: [12] 96 % of control | [13] 102 % of control | [14] 106 % of control | [15] 101 % of control | [16] 116 % of control | [17] 90 % of control

CCCN(CCC)C[Si](C)(C)C
inactive: dose: 12.5 mg/kg/injection, schedule: Q01DX001 (ip), vehicle: saline 121 % of control | dose: 25.0 mg/kg/injection, schedule: Q01DX001 (ip), vehicle: saline 105 % of control | dose: 50.0 mg/kg/injection, schedule: Q01DX001 (ip), vehicle: saline 111 % of control

CC(O)COCc1ccccc1 (configuration not stated)
inactive: [3] 103 % of control | [4] 94 % of control | [5] 94 % of control | [6] 94 % of control | [7] 97 % of control | [8] 90 % of control

O=[N+]([O-])c1ccc(N=C(Nc2ccc([N+](=O)[O-])cc2)c2ccccc2)cc1
inactive: dose: 100.0 mg/kg/injection, schedule: Q01DX009 (ip), vehicle: other 92 % of control | dose: 100.0 mg/kg/injection, schedule: Q04DX003 (ip), vehicle: other 96 % of control | dose: 200.0 mg/kg/injection, schedule: Q01DX009 (ip), vehicle: other 101 % of control | dose: 200.0 mg/kg/injection, schedule: Q04DX003 (ip), vehicle: other 102 % of control | dose: 400.0 mg/kg/injection, schedule: Q01DX009 (ip), vehicle: other 97 % of control | dose: 400.0 mg/kg/injection, schedule: Q04DX003 (ip), vehicle: other 91 % of control

Cc1nc(-c2ccccc2)cc(=O)o1
inactive: [18] 102 % of control | [19] 102 % of control | [20] 98 % of control

CC(=O)C1CCC2C3=CC=C4CC(OC(=O)C5CCCCC5)CCC4(C)C3=CCC12C (configuration not stated)
inactive: [12] 100 % of control | [14] 89 % of control | [16] 108 % of control

CCOc1ccc(NC(=O)Nc2cccc3ccccc23)cc1
inactive: [9] 98 % of control | [18] 86 % of control | [10] 94 % of control | [11] 86 % of control | [20] 92 % of control

CC1=C(N2CCCC2)CCCC1=O
inactive: dose: 100.0 mg/kg/injection, schedule: Q04DX002 (ip), vehicle: saline 112 % of control | dose: 200.0 mg/kg/injection, schedule: Q04DX002 (ip), vehicle: saline 107 % of control

CSc1ncc(Br)c(N2CC2)n1
inactive: dose: 59.0 mg/kg/injection, schedule: Q01DX Z (ip), vehicle: methylcellulose (MC) 89 % of control | dose: 88.0 mg/kg/injection, schedule: Q01DX Z (ip), vehicle: methylcellulose (MC) 86 % of control

Cc1ccc(S(=O)(=O)/N=S(\CCCl)CCc2ccccc2)cc1 (configuration not stated)
inactive: [18] 97 % of control | [19] 97 % of control | [20] 90 % of control

CCN(C)O
inactive: [3] 109 % of control | [4] 110 % of control | [5] 111 % of control | [6] 105 % of control | [7] 104 % of control | [8] 114 % of control

Cc1ccc(-n2c(=S)[nH]c3ccc(C)cc3c2=O)cc1
inactive: dose: 25.0 mg/kg/injection, schedule: Q01DX009 (ip), vehicle: saline with Tween-80 87 % of control | [13] 87 % of control

CCc1cc2c(cc1C(=O)CBr)C(C)(C)CCC2(C)C
inactive: dose: 6.25 mg/kg/injection, schedule: Q01DX009 (ip), vehicle: saline with Tween-80 103 % of control | dose: 12.5 mg/kg/injection, schedule: Q01DX009 (ip), vehicle: saline with Tween-80 109 % of control | [1] 100 % of control | [2] 102 % of control

C=CCOCC(O)CN(C)CCCCCCCCCCCC (configuration not stated)
inactive: dose: 6.0 mg/kg/injection, schedule: Q04DX003 (ip), vehicle: Klucel (hydroxypropylcellulose) (HPC) 98 % of control | dose: 12.0 mg/kg/injection, schedule: Q04DX003 (ip), vehicle: Klucel (hydroxypropylcellulose) (HPC) 96 % of control | dose: 25.0 mg/kg/injection, schedule: Q01DX009 (ip), vehicle: Klucel (hydroxypropylcellulose) (HPC) 109 % of control | dose: 25.0 mg/kg/injection, schedule: Q04DX003 (ip), vehicle: Klucel (hydroxypropylcellulose) (HPC) 93 % of control and 96 % of control | [21] 109 % of control | [18] 96 % of control

COC1OC(C(O)CO)C(O)C(O)C1O (configuration not stated)
inactive: [12] 110 % of control | [14] 100 % of control | [16] 104 % of control

CC(=O)Nc1ccc(N=Nc2ccccc2)cc1C
inactive: dose: 50.0 mg/kg/injection, schedule: Q04DX003 (ip), vehicle: Klucel (hydroxypropylcellulose) (HPC) 100 % of control | [18] 96 % of control | [19] 96 % of control

CNC(=O)C(C)(C)C
inactive: dose: 100.0 mg/kg/injection, schedule: Q01DX001 (ip), vehicle: saline with Tween-80 100 % of control | dose: 200.0 mg/kg/injection, schedule: Q01DX001 (ip), vehicle: saline with Tween-80 103 % of control | dose: 400.0 mg/kg/injection, schedule: Q01DX001 (ip), vehicle: saline with Tween-80 100 % of control

O=c1[nH]c(-c2ccccc2)nc2[nH]ncc12
inactive: [18] 105 % of control | [19] 92 % of control | [20] 87 % of control

CC(=O)CSc1nc2ccccc2s1
inactive: [21] 95 % of control | [9] 104 % of control | [10] 111 % of control

CCCCCCOC(CN(C)C)C(Cl)(Cl)Cl (configuration not stated)
inactive: [12] 101 % of control | [13] 93 % of control | [14] 98 % of control | [15] 95 % of control | [17] 98 % of control

CCC(CC)(CCN)c1ccccc1
inactive: dose: 50.0 mg/kg/injection, schedule: Q01DX001 (ip), vehicle: carboxymethylcellulose (CMC) 90 % of control | dose: 100.0 mg/kg/injection, schedule: Q01DX001 (ip), vehicle: carboxymethylcellulose (CMC) 93 % of control

CN(C)C(=S)SCC(=O)NC(CO)C(=O)O (configuration not stated)
inactive: dose: 100.0 mg/kg/injection, schedule: Q04DX002 (ip), vehicle: saline with Tween-80 100 % of control | dose: 200.0 mg/kg/injection, schedule: Q04DX002 (ip), vehicle: saline with Tween-80 107 % of control | dose: 400.0 mg/kg/injection, schedule: Q04DX002 (ip), vehicle: saline with Tween-80 111 % of control

O=C(Nc1cccc(Cl)c1)Nc1ccccc1Cl
inactive: [12] 100 % of control | [14] 97 % of control | [16] 96 % of control

Clc1ccc(C(Cl)(Cl)Cl)cc1Cl
inactive: [21] 110 % of control | [9] 103 % of control | [18] 106 % of control | [10] 98 % of control | [19] 106 % of control
